Earlier results in patent publication US7718667B2, “Fused aminopiperidines as dipeptidyl peptidase-IV inhibitors for the treatment or prevention of diabetes” (Merck Sharp & Dohme Corp., priority 2004, dated 2010).

Experiments:
[1] = tested on: mouse; conditions: cyclophosphamide-induced neutropenia
[2] = tested on: rats; conditions: survival doubled from day 7
[3] = target: T1, DPP-IV (Homo sapiens, UniProt P27487)
T1 construct: GRF is rapidly degraded in plasma to GRF[3-44]; from tissue
T1 sequence (P27487 39-766 limits assumed, species assumed): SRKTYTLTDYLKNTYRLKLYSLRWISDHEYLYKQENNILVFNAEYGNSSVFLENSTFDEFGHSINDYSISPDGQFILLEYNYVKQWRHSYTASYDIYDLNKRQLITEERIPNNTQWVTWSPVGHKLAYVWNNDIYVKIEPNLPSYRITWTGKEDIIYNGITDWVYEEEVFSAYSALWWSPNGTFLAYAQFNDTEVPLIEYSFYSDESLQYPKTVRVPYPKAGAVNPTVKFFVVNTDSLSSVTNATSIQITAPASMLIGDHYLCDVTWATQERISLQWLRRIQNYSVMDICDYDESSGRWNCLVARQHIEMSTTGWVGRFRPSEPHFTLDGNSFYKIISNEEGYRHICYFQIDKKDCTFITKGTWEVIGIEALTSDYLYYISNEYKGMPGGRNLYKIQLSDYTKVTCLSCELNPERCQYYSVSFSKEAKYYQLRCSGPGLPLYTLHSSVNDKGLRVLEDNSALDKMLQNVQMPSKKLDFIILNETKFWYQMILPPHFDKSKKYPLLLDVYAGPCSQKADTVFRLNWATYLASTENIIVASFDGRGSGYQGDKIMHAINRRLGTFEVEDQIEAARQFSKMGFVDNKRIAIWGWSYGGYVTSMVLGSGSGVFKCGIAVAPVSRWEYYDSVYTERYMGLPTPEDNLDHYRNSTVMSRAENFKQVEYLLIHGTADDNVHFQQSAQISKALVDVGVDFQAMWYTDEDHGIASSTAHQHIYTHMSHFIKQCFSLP

For `CC(C)[C@H](N)C(=O)N1CCC[C@H]1B(O)O` [Val-Boro-Pro], the hematopoiesis [1] is given as “stimulated hematopoiesis”.
For `CC(C)N1CCC(c2ccccc2)(c2ccccc2)CC1` [Prodipine, Pro-Pro-diphenyl-phosphonate], the cardiac allograft survival [2] is given as 14 day.
For `CC[C@H](C)[C@H](N)C(=O)N1CCC[C@H]1C(=O)N[C@H](C(=O)O)[C@@H](C)CC` [diprotin A], the “degradation of GRF in plasma to GRF[3-44]” value [3] is given as “prevented”.
